Test [1] can be described thus: Inhibition of L-[3H]Leu uptake at Aquifex aeolicus sodium-coupled leucine transporter.
Test [2] in a line: Inhibition of L-[3H]Ala uptake at Aquifex aeolicus sodium-coupled leucine transporter.
The subject of test [3] is Aquifex aeolicus. Description: Activity at Aquifex aeolicus sodium-coupled leucine transporter assessed as inhibition of L-[3H]Ala transport at 1 uM.
The subject of test [4] is Aquifex aeolicus. Description: Activity at Aquifex aeolicus sodium-coupled leucine transporter assessed as inhibition of L-[3H]Ala transport at 20 uM.
For test [5], the system named is Aquifex aeolicus. Description: Activity at Aquifex aeolicus sodium-coupled leucine transporter assessed as inhibition of L-[3H]Ala transport at 50 uM.
Test [6] can be described thus: (§1) Binding affinity to Aquifex aeolicus sodium-coupled leucine transporter.
Test [7] deals with Aquifex aeolicus. The description is as §1.

Structures are written as SMILES.

Regarding `CN(C)CCCN1c2ccccc2CCc2ccc(Cl)cc21` [CLOMIPRAMINE], the values for the IC50 in test [1] and in test [2] were 250 µM and 4.7 µM, respectively. The figures for the Km with Aquifex aeolicus [3], in the test on Aquifex aeolicus [4] and in the test on Aquifex aeolicus [5] were 0.42 µM, 0.47 µM and 0.48 µM, respectively. Also, the values for the Vmax in the test with Aquifex aeolicus [3], with Aquifex aeolicus [4] and with Aquifex aeolicus [5] were 1480 pmol/min/mg, 970 pmol/min/mg and 770 pmol/min/mg, respectively.

In the case of `CC(C)C[C@H](N)C(=O)O` [LEUCINE], the Kd in test [6] is 0.02 µM. In addition, the kcat in the test with Aquifex aeolicus [7] was determined as 0.000333 s⁻¹.

What is called IC50 is the midpoint of a concentration-inhibition curve. Read a low IC50 as higher potency. By Km is commonly meant the substrate concentration at which the rate is half of its maximum. For orientation: Vmax means the top rate of the reaction or transport when substrate is in excess. What is called Kd is the equilibrium constant for the complex coming apart. Lower therefore signals higher affinity. Broadly, the kcat is the maximal rate divided by the concentration of active sites.

Values taken from ChEMBL document CHEMBL1147061, “Antidepressant binding site in a bacterial homologue of neurotransmitter transporters” (Nature, 2007).
